The subject of series [1] is Chloroquine-resistant P. falciparum K 1-strain. In words: Antiplasmodial activity, Malstat (pLDH) assay. Type of series: cell-based. To be noted: Plasmodium falciparum; K1 strain, 72 h. As for the experimental part: (§1) The integrated panel of microbial screens and standard screening methodologies were adopted as previously described. All assays were performed in triplicate at the Laboratory of Microbiology, Parasitology and Hygiene at the University of Antwerp (Antwerp, Belgium). Extracts were tested at five concentrations (64, 16, 4, 1 and 0.25 μg/mL) to establish a full dose-titration and determination of the IC50 (inhibitory concentration 50%). […] The selectivity of activity was assessed by simultaneous cytotoxicity evaluation on the MRC-5 fibroblast cell line.
Chloroquine-resistant P. falciparum K 1-strain was cultured in human erythrocytes O^+ at 37 °C under a low oxygen atmosphere (3% O2, 4% CO2, and 93% N2) in RPMI-1640, supplemented with 10% human serum. Infected human red blood cells (200 μL, 1% parasitaemia, 2% haematocrit) were added to each well and incubated for 72 h. After incubation, test plates were frozen at −20 °C. Parasite multiplication was measured using the Malstat assay, a colorimetric method based on the reduction of 3-acetyl pyridine adenine dinucleotide (APAD) by parasite-specific lactate-dehydrogenase (pLDH).

For a further series, the system named is Mycobacterium cheleneoi. Kind of series: Antimicrobial activity. The class given is cell-based, M. cheleneoi. How it is done:
(§2) Samples were tested for antimicrobial activity according to the Clinical Laboratory Standard Institution using American type of Culture Collection (ATCC) standard.

The subject of series [2] is Mycobacterium intracellulare. In words: Antimicrobial activity. Type of series: cell-based, M. intracellulare. How it is done: as §2
Series [3] can be described thus: Cytotoxicity assay, resazurin. Type of series: cell-based. To be noted: human, MRC-5 SV2 fibroblast cells. How it is done:
The integrated panel of microbial screens and standard screening methodologies were adopted as previously described. All assays were performed in triplicate at the Laboratory of Microbiology, Parasitology and Hygiene at the University of Antwerp (Antwerp, Belgium). […] The selectivity of activity was assessed by simultaneous cytotoxicity evaluation on the MRC-5 fibroblast cell line. […] MRC-5 SV2 cells were cultivated in MEM, supplemented with L-glutamine (20 mM), 16.5 mM sodium hydrogen carbonate and 5% FCS. […] Cell viability was assessed fluorimetrically after 4 h of addition of resazurin. Fluorescence was measured (excitation 550 nm, emission 590 nm) and the results were expressed as % reduction in cell viability compared to control.

The next series relates to T. cruzi Tulahuen CL2. Kind of series: Antitrypanosomal activity, T. cruzi on MRC-5 cells, LacZ reporter. Type of series: cell-based, Trypanosoma cruzi. As to conditions: 7 days. How it is done: as §1
(§3) Trypanosoma brucei Squib-427 strain (suramin-sensitive) was cultured at 37 °C and 5% CO2 in Hirumi-9 medium, supplemented with 10% fetal calf serum (FCS). About 1.5 × 10^4 trypomastigotes/well were added to each well and parasite growth was assessed after 72 h at 37 °C by adding resazurin [29]. For Chagas disease, T. cruzi Tulahuen CL2 (benznidazole-sensitive, LacZ-reporter strain) was maintained on MRC-5 cells in minimal essential medium (MEM) supplemented with 20 mM L-glutamine, 16.5 mM sodium hydrogen carbonate and 5% FCS. […] After incubation at 37 °C for 7 days, parasite growth was assessed by adding the substrate chlorophenol red α-D-galactopyranoside. The color reaction was read at 540 nm after 4 h and absorbance values were expressed as a percentage of the blank controls.

Another series deals with Mycobacterium xenopi. Kind of series: Antimicrobial activity. The class given is cell-based, M. xenopi. As for the experimental part:
as §2

The test system of series [4] is L. infantum MHOM/MA (BE)/67 amastigotes. Kind of series: Antileishmanial activity, intracellular amastigotes in primary peritoneal mouse macrophages. Type of series: cell-based, Leishmania infantum. To be noted: 5 days. How it is done:
The integrated panel of microbial screens and standard screening methodologies were adopted as previously described. All assays were performed in triplicate at the Laboratory of Microbiology, Parasitology and Hygiene at the University of Antwerp (Antwerp, Belgium). […] The selectivity of activity was assessed by simultaneous cytotoxicity evaluation on the MRC-5 fibroblast cell line. […] L. infantum MHOM/MA (BE)/67 amastigotes were collected from the spleen of an infected donor hamster and used to infect primary peritoneal mouse macrophages. To determine in vitro antileishmanial activity, 3 × 10^4 macrophages were seeded in each well of a 96-well plate. After 2 days outgrowth, 5 × 10^5 amastigotes/well, were added and incubated for 2 h at 37 °C. Pre-diluted plant extracts were subsequently added and the plates were further incubated for 5 days at 37 °C and 5% CO2. Parasite burdens (mean number of amastigotes/macrophage) were microscopically assessed on 500 cells after Giemsa staining of the […] expressed as a percentage of the blank controls without plant extract.

The next series deals with P. aeruginosa. In words: Antimicrobial activity. The class given is cell-based. As to conditions: Pseudomonas aeruginosa. How it is done: as §2
Another series has as its system S. aureus. Kind of series: Antimicrobial activity. To be noted: Staphylococcus aureus. Type of series: cell-based. As for the experimental part:
as §2

In the next series the test system is C. albicans. Kind of series: Antimicrobial activity. Type of series: cell-based. As to conditions: Candida albicans. As for the experimental part:
as §2

The next series deals with Mycobacterium smegmatis. In words: Antimicrobial activity. The class given is cell-based. To be noted: Mycolicibacterium smegmatis. As for the experimental part: as §2
Another series concerns E. coli. In words: Antimicrobial activity. Type of series: cell-based. As to conditions: Escherichia coli. How it is done:
as §2

The test system of series [5] is Trypanosoma brucei Squib-427 strain. Kind of series: Antitrypanosomal activity, T. brucei trypomastigotes, resazurin. The class given is cell-based. To be noted: 72 h. How it is done:
as §1, §3
(In general: The colour change of resazurin is a common sign of viable cells or microbes.)

The test system of a further series is B. subtilis. Kind of series: Antimicrobial activity. The class given is cell-based, Bacillius subtilis. As to conditions: Bacillus subtilis. As for the experimental part: as §2

Structures are written as SMILES. Like-named read-outs stand apart in the source and are kept apart here.

Molecule `COc1cc2oc3cc(OC)c(OC)c(CC=C(C)C)c3c(=O)c2c(O)c1CC=C(C)C` returned a melting point of 152 to 154 °C.

Turning to `COc1c(O)cc2oc3cc(O)c(CC=C(C)C)c(O)c3c(=O)c2c1CC=C(C)C` [α-Mangostin], the half-maximal inhibitory concentration (IC50) in series [1] is 2.2 µM; in the series on T. cruzi Tulahuen CL2 it was 8.9 µM; with T. cruzi Tulahuen CL2 (Trypanosoma cruzi, TULAHUEN, MRC5, 168 h), 8 to 9 µM; in [4], 8 µM; in series [4] (Leishmania infantum, Macrophage, 120 h), 8 to 9 µM; with P. aeruginosa (no activity at all), greater than 200 µg/mL. Also, the IC50 with C. albicans (no activity at all) was greater than 200 µg/mL; in the series with E. coli (no activity at all), greater than 200 µg/mL; in series [5], 7.9 µM; in series [5] (Trypanosoma brucei), 8 to 9 µM. Further, the MIC in the series on Mycobacterium cheleneoi (read-out: MIC Mycobacterium cheleneoi) is 3.7 µM; with Mycobacterium cheleneoi (read-out: MIC Mycobacterium species (M. cheleneoi)), 1.5 µg/mL; in [2] (read-out: MIC Mycobacterium intracellulare), 3.7 µM; in [2] (read-out: MIC Mycobacterium species (M. intracellulare)) it was 1.5 µg/mL; in the series on Mycobacterium xenopi (read-out: MIC Mycobacterium species (M. xenopi)), 1.5 µg/mL; in the series on Mycobacterium xenopi (read-out: MIC Mycobacterium xenopi), 3.7 µM. For the same molecule, the minimum inhibitory concentration (MIC) with P. aeruginosa was greater than 200 µM; with S. aureus it was 7.8 µM; in the series on S. aureus (text) it was 3.2 µg/mL; with C. albicans, greater than 200 µM; in the series with Mycobacterium smegmatis (read-out: MIC Mycobacterium smegmatis), 3.7 µM; with Mycobacterium smegmatis (read-out: MIC Mycobacterium species (M. smegmatis)) it was 1.5 µg/mL. In addition, the MIC in the series with E. coli was greater than 200 µM; against B. subtilis, 3.9 µM; with B. subtilis (text), 1.6 µg/mL. The same molecule showed an IC50 at 72 h in [3] of 7.5 µM.

For orientation: melting point means the temperature of the solid-liquid transition. A word on the IC50: it is the point on the concentration scale where inhibition reaches its midpoint. Low readings indicate greater potency in that assay, high ones weaker potency in that assay. For orientation: MIC means the least concentration at which growth counts as inhibited.

(Values after article PMC6270423, “Phytochemical, Antimicrobial and Antiprotozoal Evaluation of Garcinia Mangostana Pericarp and α-Mangostin, Its Major Xanthone Derivative” (Molecules, 2013).)
